We go through 1 compound from patent publication US20220409580A1, “METHODS OF TREATING CONDITIONS RELATED TO THE S1P1 RECEPTOR” (Arena Pharmaceuticals, Inc., priority 2019, published 2022).

Common to all, as to format: in vivo, human
Series [1] relates to lymphocyte count. As to the kind of experiment: Single-blind, placebo-controlled, randomized study of PK, PD, safety and tolerability: lymphocyte count. The procedure:
(§1) A single-blind (ie, subject only), placebo-controlled, randomized, fixed-sequence, parallel design study evaluated PK, PD, safety, and tolerability in healthy Japanese and Caucasian male subjects (data reported herein is based on the preliminary clinical study report). A total of 49 subjects were enrolled and received 1 or 2 mg of Compound 1 or placebo once daily for 7 days followed by an additional single dose on Day 15, administered 1 week after a treatment-free period. […] The median percent change from baseline at Day 7 was −23.61% in the Japanese 1 mg group, −25.79% in the Caucasian 1 mg group, −50.00% in the Japanese 2 mg group, and −43.67% in the Caucasian 2 mg group. The median percent change from baseline at Day 15 (pre-dose) was 0.00% in the Japanese 1 mg group, −21.43% in the Caucasian 1 mg group, −6.67% in the Japanese 2 mg group, and −16.23% in the Caucasian 2 mg group. In depth immunophenotyping was performed in healthy subjects.

Series [2] in a line: Safety and tolerability in adult subjects, including Phase 1 studies with healthy adult subjects. Conditions: approximately 281 adult subjects at various doses; single doses up to 5 mg, repeated doses up to 4 mg QD. The protocol: (§2) Compound 1, or a pharmaceutically acceptable salt, solvate, or hydrate thereof, is an orally administered, selective, synthetic sphingosine 1-phosphate (S1P) receptor 1, 4, 5 modulator. […] Its safety and tolerability have been evaluated in Phase 1 studies with healthy adult subjects at single doses up to 5 mg and repeated doses up to 4 mg once daily (QD).

In series [3] the test system is UC. The series can be described thus: Phase 2 dose-ranging study in UC patients and open-label extension study. Conditions: UC patients. The protocol: as §2
The test system of series [4] is circulating B cells, CD4+ TCM, CD4+ TN, Th17, Th2, CD8+ TCM, and CD8+TN cells. As to the kind of experiment: In depth immunophenotyping in healthy subjects (FIG. 3). The note with it: 1 or 2 mg once daily, peaked at Day 7 pre-dose. The protocol: as §1

Turning to `O=C(O)C[C@H]1CCc2c1[nH]c1ccc(OCc3ccc(C4CCCC4)c(C(F)(F)F)c3)cc21` [Compound 1, (R)-2-(7-(4-cyclopentyl-3-(trifluoromethyl)benzyloxy)-1,2,3,4-tetrahydrocyclopenta[b]indol-3-yl)acetic acid], the “median percent change from baseline in lymphocyte count” value in series [1] (Day 7, Caucasian 1 mg group, once daily for 7 days, healthy male subjects) is −25.79%; in series [1] (Day 7, Caucasian 2 mg group, once daily for 7 days, healthy male subjects), −43.67%; in series [1] (Day 7, Japanese 1 mg group, once daily for 7 days, healthy male subjects) it was −23.61%; in series [1] (Day 7, Japanese 2 mg group, once daily for 7 days, healthy male subjects) it was −50.00%; in series [1] (Day 15 (pre-dose), after 1 week treatment-free period, Caucasian 1 mg group) it was −21.43%; in series [1] (Day 15 (pre-dose), after 1 week treatment-free period, Caucasian 2 mg group), −16.23%. Moreover, the “median percent change from baseline in lymphocyte count” value in series [1] (Day 15 (pre-dose), after 1 week treatment-free period, Japanese 1 mg group) is given as 0.00%; in series [1] (Day 15 (pre-dose), after 1 week treatment-free period, Japanese 2 mg group) it was −6.67%. Also, in series [1] (all treatment groups, from first dose (Day 2) through end of repeated dosing period on Day 8), the median lymphocyte count result is on record as “Progressive decreases”. The “total lymphocyte count, including Th2 T cells” value in series [1] (healthy subjects, 1 or 2 mg once daily) is “dose-dependent decrease”. Besides, the safety and tolerability result in series [2] was “safe and well-tolerated”. Further, the “endoscopic and symptomatic improvements versus placebo” value in series [3] (2 mg QD for 12 weeks) is “clinically meaningful and statistically significant endoscopic and symptomatic improvements”. Moreover, the “beneficial effects in open-label extension study” value in series [3] (up to 46 weeks) was “Sustained beneficial effects”. Besides, the “median number of circulating B cells, CD4+ TCM, CD4+ TN, Th17, Th2, CD8+ TCM, and CD8+TN cells” value in series [4] was “dose-dependent decrease”.
